We go through 46 compounds from US9630956B2, “Compounds useful as inhibitors of ATR kinase” (Vertex Pharmaceuticals Incorporated, priority 2010, dated 2017).

Experiment [1] deals with HCT116 colorectal cancer cells. Nature of the experiment: Cisplatin Sensitization Assay (96h cell viability MTS). In kind it is cell-based. The following applies: concentration of compound required to reduce the IC50 of Cisplatin alone by at least 3-fold, 96h MTS. The procedure: Compounds can be screened for their ability to sensitize HCT116 colorectal cancer cells to Cisplatin using a 96h cell viability (MTS) assay. […] Compounds and Cisplatin are then both added simultaneously to the cell media in 2-fold serial dilutions from a top final concentration of 10 μM as a full matrix of concentrations in a final cell volume of 200 μl, and the cells are then incubated at 37° C. in 5% CO2. After 96h, 40 μl of […] (Promega G358a) is added to each well and the cells are incubated for 1 h at 37° C. in 5% CO2.

Experiment [2] deals with full-length ATR (Homo sapiens (Human), UniProt Q13535). Put plainly: ATR Inhibition Assay (radioactive-phosphate incorporation). In kind it is biochemical. The procedure:
Compounds were screened for their ability to inhibit ATR kinase using a radioactive-phosphate incorporation assay. Assays were carried out in a mixture of 50 mM Tris/HCl (pH 7.5), 10 mM MgCl2 and 1 mM DTT. Final substrate concentrations were 10 μM [γ-33P]ATP (3 mCi 33P ATP/mmol ATP, Perkin Elmer) and 800 μM target peptide ([…]).
Assays were carried out at 25° C. in the presence of 5 nM full-length ATR. An assay stock buffer solution was prepared containing all of the reagents listed above, with the exception of ATP and the test compound of interest. 13.5 μL of the stock solution was placed in a 96 well plate followed by addition of 2 μL of DMSO stock containing serial dilutions of the test compound (typically starting from a final concentration of 15 μM with 3-fold serial dilutions) in duplicate (final DMSO concentration 7%). The plate was pre-incubated for 10 minutes at 25° C. and the reaction initiated by addition of 15 μL [γ-33P]ATP (final concentration 10 μM).
The reaction was stopped after 24 hours by the addition of 30 μL 0.1 M phosphoric acid containing 2 mM ATP. A multiscreen phosphocellulose filter 96-well plate (Millipore, Cat no. MAPHNOB50) was pretreated with 100 μL 0.2M phosphoric acid prior to the addition of 45 μL of the stopped assay mixture. The plate was washed with 5×200 μL 0.2M phosphoric acid. After drying, 100 μL Optiphase ‘SuperMix’ liquid scintillation cocktail (Perkin Elmer) was added to the well prior to scintillation counting (1450 Microbeta Liquid Scintillation Counter, Wallac).
After removing mean background values for all of the data points, Ki(app) data were calculated from non-linear regression analysis of the initial rate data using the Prism software package (GraphPad Prism version 3.0cx for Macintosh, GraphPad Software, San Diego Calif., USA).
Below is a chart showing the ATR Inhibition Ki values of compounds of the disclosure.

Setting [3] is: ATR Inhibition Ki(app), 10 μM ATP, 800 μM target peptide, 5 nM full-length ATR, 25° C.

Where two headings read alike, the source gives them in different places.

Sequence of full-length ATR (Q13535 whole entry): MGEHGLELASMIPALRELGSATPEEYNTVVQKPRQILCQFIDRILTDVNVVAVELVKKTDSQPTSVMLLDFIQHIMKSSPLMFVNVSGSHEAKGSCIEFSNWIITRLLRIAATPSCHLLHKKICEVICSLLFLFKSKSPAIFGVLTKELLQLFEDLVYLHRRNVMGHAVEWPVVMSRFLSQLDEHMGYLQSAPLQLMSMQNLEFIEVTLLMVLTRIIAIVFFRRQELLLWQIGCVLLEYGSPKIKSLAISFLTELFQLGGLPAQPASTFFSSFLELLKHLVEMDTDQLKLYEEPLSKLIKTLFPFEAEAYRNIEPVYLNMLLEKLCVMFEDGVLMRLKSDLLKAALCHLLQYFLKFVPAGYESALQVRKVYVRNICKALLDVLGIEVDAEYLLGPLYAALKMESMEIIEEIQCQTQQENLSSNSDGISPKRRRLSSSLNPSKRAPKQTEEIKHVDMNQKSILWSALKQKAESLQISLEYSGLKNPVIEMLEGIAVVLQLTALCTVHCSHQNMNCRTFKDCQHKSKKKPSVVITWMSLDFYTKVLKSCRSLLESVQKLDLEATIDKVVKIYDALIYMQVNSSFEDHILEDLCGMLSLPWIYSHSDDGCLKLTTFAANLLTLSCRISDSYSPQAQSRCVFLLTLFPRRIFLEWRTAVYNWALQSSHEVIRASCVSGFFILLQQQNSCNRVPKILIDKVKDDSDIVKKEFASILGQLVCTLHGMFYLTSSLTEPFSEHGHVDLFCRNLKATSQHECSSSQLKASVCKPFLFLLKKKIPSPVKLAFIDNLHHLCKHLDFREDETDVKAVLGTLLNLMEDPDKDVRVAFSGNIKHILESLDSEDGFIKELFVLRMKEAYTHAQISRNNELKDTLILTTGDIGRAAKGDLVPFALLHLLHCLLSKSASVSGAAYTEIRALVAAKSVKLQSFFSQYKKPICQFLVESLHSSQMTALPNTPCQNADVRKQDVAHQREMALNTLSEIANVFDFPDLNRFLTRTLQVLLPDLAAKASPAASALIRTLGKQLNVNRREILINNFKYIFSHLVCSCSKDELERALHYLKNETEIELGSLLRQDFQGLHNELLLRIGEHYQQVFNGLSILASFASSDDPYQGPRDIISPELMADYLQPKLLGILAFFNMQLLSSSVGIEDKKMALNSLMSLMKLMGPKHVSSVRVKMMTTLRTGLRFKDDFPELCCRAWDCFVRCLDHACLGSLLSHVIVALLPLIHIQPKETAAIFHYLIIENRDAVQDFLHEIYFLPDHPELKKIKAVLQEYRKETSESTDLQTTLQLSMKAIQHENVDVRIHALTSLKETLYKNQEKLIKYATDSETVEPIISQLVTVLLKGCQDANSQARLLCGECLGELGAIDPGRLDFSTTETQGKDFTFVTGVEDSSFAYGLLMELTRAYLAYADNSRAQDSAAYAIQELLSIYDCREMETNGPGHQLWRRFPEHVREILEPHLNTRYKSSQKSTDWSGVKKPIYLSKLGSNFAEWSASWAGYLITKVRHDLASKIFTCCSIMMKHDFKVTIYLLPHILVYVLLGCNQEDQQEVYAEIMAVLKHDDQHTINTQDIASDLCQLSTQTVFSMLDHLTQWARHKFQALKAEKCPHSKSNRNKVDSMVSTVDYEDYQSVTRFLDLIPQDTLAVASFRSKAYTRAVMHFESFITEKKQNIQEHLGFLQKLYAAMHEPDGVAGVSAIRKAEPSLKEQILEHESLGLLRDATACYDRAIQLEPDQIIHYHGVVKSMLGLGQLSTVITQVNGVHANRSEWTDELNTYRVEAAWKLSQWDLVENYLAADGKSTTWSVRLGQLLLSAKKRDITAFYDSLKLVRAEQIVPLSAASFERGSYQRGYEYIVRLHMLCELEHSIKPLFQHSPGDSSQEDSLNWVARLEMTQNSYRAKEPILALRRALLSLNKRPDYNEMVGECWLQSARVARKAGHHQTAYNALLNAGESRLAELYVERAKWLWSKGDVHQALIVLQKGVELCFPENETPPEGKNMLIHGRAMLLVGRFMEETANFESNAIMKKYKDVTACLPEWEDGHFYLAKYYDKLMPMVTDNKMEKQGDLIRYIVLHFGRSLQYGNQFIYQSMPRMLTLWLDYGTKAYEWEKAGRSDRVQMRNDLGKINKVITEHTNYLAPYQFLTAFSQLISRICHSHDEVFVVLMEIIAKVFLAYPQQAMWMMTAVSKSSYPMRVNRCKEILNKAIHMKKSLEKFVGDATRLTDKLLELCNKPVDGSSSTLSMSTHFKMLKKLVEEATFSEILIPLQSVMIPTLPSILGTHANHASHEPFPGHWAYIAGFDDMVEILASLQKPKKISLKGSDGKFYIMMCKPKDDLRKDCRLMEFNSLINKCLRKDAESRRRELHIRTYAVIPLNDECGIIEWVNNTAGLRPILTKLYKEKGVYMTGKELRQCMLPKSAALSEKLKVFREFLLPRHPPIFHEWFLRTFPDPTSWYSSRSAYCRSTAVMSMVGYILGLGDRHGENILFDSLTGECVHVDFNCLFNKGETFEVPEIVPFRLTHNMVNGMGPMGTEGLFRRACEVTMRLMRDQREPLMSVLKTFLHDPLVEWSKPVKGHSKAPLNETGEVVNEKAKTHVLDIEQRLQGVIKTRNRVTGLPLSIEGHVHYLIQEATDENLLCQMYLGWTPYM

Take `CNCc1ccc(-c2nnc(-c3nc(-c4ccc(=O)n(C(C)C)c4)cnc3N)o2)cc1` [Compound I-3]: the “CP3 shift” value in experiment [1] turned out to be 0.234 µM. In addition, the Ki in experiment [2] (setting [3]) was in the range of 5 to 50 nM.

Turning to `CNCc1ccc(-c2nnc(-c3nc(-c4ccc(=O)n(C(C)C)c4)cnc3N)o2)c(OC)c1` [Compound I-6], the “CP3 shift” value in experiment [1] is 0.156 µM. In addition, the Ki in experiment [2] (setting [3]) is not above 5 nM.

For `CNCc1ccc(-c2cc(-c3nc(-c4ccc(=O)n(C(C)C)c4)cnc3N)on2)cc1` [Compound I-11], in experiment [1], the “CP3 shift” value was 0.156 µM. Also, the Ki in experiment [2] (setting [3]) is not above 5 nM.

For the compound `CNCc1ccc(-c2cc(-c3nc(-c4ccc(=O)n(C(C)C#N)c4)cnc3N)on2)cc1` (stereo not shown) [Compound I-15], the “CP3 shift” value in experiment [1] is 0.039 µM. Besides, the Ki in experiment [2] (setting [3]) was not above 5 nM.

In the case of `CNCc1ccc(-c2cc(-c3nc(-c4ccc(=O)n(C5CCC(C)C5)c4)cnc3N)on2)cc1` (stereo not shown) [Compound I-22], the “CP3 shift” value in experiment [1] worked out at 0.02 µM. Further, in experiment [2] (setting [3]), the Ki is not above 5 nM.

For the compound `CNCc1ccc(-c2nnc(-c3nc(-c4ccc(=O)n(C5CCCC5)c4)cnc3N)o2)c(OC)c1` [Compound I-32], in experiment [1], the “CP3 shift” value was 0.079 µM. Also, in experiment [2] (setting [3]), the Ki was not above 5 nM.

In the case of `CNCc1ccc(-c2nnc(-c3nc(-c4ccc(=O)n(C(C)C5CC5)c4)cnc3N)o2)c(OC)c1` (stereo not shown) [Compound I-37], the “CP3 shift” value in experiment [1] turned out to be 0.078 µM. For the same compound, in experiment [2] (setting [3]), the Ki was not above 5 nM.

Take `CC(N)c1cccc(-c2nnc(-c3nc(-c4ccc(=O)n(C(C)C)c4)cnc3N)o2)c1` (stereo not shown) [Compound I-42]: the “CP3 shift” value in experiment [1] was determined as 0.156 µM. In experiment [2] (setting [3]), the Ki was not above 5 nM.

Regarding `CNCc1cccc(-c2cc(-c3nc(-c4ccc(=O)n(C(C)C)c4)cnc3N)on2)c1` [Compound I-49, 5-(5-amino-6-(3-(3-((methylamino)methyl)phenyl)isoxazol-5-yl)pyrazin-2-yl)-1-isopropylpyridin-2(1H)-one], in experiment [1], the “CP3 shift” value stood at 0.625 µM. Moreover, in experiment [2], the Ki lay within 5 to 50 nM.

Regarding `CC(C)(C)NCc1ccc(-c2cc(-c3nc(-c4ccc(=O)n(C5CCCC5)c4)cnc3N)on2)cc1` [Compound I-50], the “CP3 shift” value in experiment [1] stood at 0.312 µM. Moreover, in experiment [2] (setting [3]), the Ki is not above 5 nM.

As for `CNCc1ccc(-c2cc(-c3nc(-c4ccc(=O)n(C(C)C5CC5)c4)cnc3N)on2)c(F)c1` (stereo not shown) [Compound I-54], the “CP3 shift” value in experiment [1] is 0.039 µM. Also, the Ki in experiment [2] (setting [3]) was not above 5 nM.

Take `CC(N)c1cccc(-c2cc(-c3nc(-c4ccc(=O)n(C(C)C)c4)cnc3N)on2)c1` (stereo not shown) [Compound I-55]: the “CP3 shift” value in experiment [1] stood at 0.039 µM. Moreover, the Ki in experiment [2] (setting [3]) is not above 5 nM.

For the compound `CC(N)c1cccc(-c2cc(-c3nc(-c4ccc(=O)n(C(C)C5CC5)c4)cnc3N)on2)c1` (stereo not shown) [Compound I-57, 5-(5-amino-6-(3-(3-(1-aminoethyl)phenyl)isoxazol-5-yl)pyrazin-2-yl)-1-(1-cyclopropylethyl)pyridin-2(1H)-one], in experiment [1], the “CP3 shift” value turned out to be 0.02 µM. Further, the Ki in experiment [2] (setting [3]) was not above 5 nM.

With `CC(C)n1cc(-c2cnc(N)c(-c3cc(-c4ccc(CN[C@H]5CCOC5)cc4)no3)n2)ccc1=O` [Compound I-58], the “CP3 shift” value in experiment [1] turned out to be 0.312 µM.

As to `CC(C)NCc1ccc(-c2cc(-c3nc(-c4ccc(=O)n(C(C)C)c4)cnc3N)on2)cc1` [Compound I-60], the “CP3 shift” value in experiment [1] was determined as 0.312 µM. For the same compound, in experiment [2] (setting [3]), the Ki was not above 5 nM.

As for `CC(C)n1cc(-c2cnc(N)c(-c3cc(-c4ccc(CNC5CC5)cc4)no3)n2)ccc1=O` [Compound I-61], the “CP3 shift” value in experiment [1] was found to be 0.078 µM. In addition, the Ki in experiment [2] (setting [3]) was not above 5 nM.

As for `CNCc1ccc(-c2cc(-c3nc(-c4ccc(=O)n(C(C)C(=O)NC)c4)cnc3N)on2)cc1` (stereo not shown) [Compound I-91], in experiment [2] (setting [3]), the Ki was not above 5 nM.

For `CNCc1ccc(-c2cc(-c3nc(-c4ccc(=O)n(CCOC)c4)cnc3N)on2)cc1` [Compound I-95], the Ki in experiment [2] (setting [3]) is not above 5 nM.

Take `CNCc1ccc(-c2cc(-c3nc(-c4ccc(=O)n(CC(N)=O)c4)cnc3N)on2)cc1` [Compound I-98]: the Ki in experiment [2] (setting [3]) is not above 5 nM.

For the compound `CC(C#N)n1cc(-c2cnc(N)c(-c3cc(-c4ccc(CNC5CC5)cc4)no3)n2)ccc1=O` (stereo not shown) [Compound I-99], in experiment [2] (setting [3]), the Ki was not above 5 nM.

On to `CNCc1ccc(-c2cc(-c3nc(-c4c[nH]c(=O)c(C(C)C)c4)cnc3N)on2)cc1` [Compound I-100], for which the Ki in experiment [2] (setting [3]) is not above 5 nM.

Regarding `CCN(CC)C(=O)C(C)n1cc(-c2cnc(N)c(-c3cc(-c4ccc(CNC)cc4)no3)n2)ccc1=O` (stereo not shown) [Compound I-101, 2-(5-(5-amino-6-(3-(4-((methylamino)methyl)phenyl)isoxazol-5-yl)pyrazin-2-yl)-2-oxopyridin-1(2H)-yl)-N,N-diethylpropanamide], in experiment [2], the Ki lay in the range of 5 to 50 nM.

As to `CC(N)c1cccc(-c2cc(-c3nc(-c4ccc(=O)[nH]c4)cnc3N)on2)c1` (stereo not shown) [Compound I-103], in experiment [2] (setting [3]), the Ki was not above 5 nM.

For `CC(N)c1cccc(-c2cc(-c3nc(-c4ccc(=O)n(C(C)C(N)=O)c4)cnc3N)on2)c1` (stereo not shown) [Compound I-104], the Ki in experiment [2] (setting [3]) was not above 5 nM.

As for `CNCc1ccc(-c2cc(-c3nc(-c4ccc(=O)n(C)c4)cnc3N)on2)cc1` [Compound I-108], the Ki in experiment [2] (setting [3]) is not above 5 nM.

For `CCCn1cc(-c2cnc(N)c(-c3cc(-c4ccc(CNC)cc4)no3)n2)ccc1=O` [Compound I-109], the Ki in experiment [2] (setting [3]) was not above 5 nM.

Turning to `Nc1ncc(-c2ccc(=O)[nH]c2)nc1-c1cc(-c2ccc(CNC3CC3)cc2)no1` [Compound I-111, 5-[5-amino-6-[3-[4-[(cyclopropylamino)methyl]phenyl]isoxazol-5-yl]pyrazin-2-yl]-1H-pyridin-2-one], the Ki in experiment [2] (setting [3]) was not above 5 nM.

Turning to `Nc1ncc(-c2c[nH]c(=O)c(Cl)c2)nc1-c1cc(-c2ccc(CNC3CC3)cc2)no1` [Compound I-112], in experiment [2] (setting [3]), the Ki is not above 5 nM.

For `CNCc1ccc(-c2cc(-c3nc(-c4ccc(=O)n(CC5(C)COC5)c4)cnc3N)on2)cc1` [Compound I-113], the Ki in experiment [2] (setting [3]) is not above 5 nM.

Regarding `CNCc1ccc(-c2cc(-c3nc(-c4c[nH]c(=O)c(C5=CCCCC5)c4)cnc3N)on2)cc1` [Compound I-114], the Ki in experiment [2] (setting [3]) was not above 5 nM.

Consider `CNCc1ccc(-c2cc(-c3nc(-c4c[nH]c(=O)c(C5CCCCC5)c4)cnc3N)on2)cc1` [Compound I-115], for which, in experiment [2] (setting [3]), the Ki was not above 5 nM.

On to `CNCc1ccc(-c2cc(-c3nc(-c4ccc(=O)n(C(CO)CO)c4)cnc3N)on2)cc1` [Compound I-117], for which, in experiment [2] (setting [3]), the Ki was not above 5 nM.

For `CNCc1ccc(-c2cc(-c3nc(-c4ccc(=O)n(C(C)C)c4)cnc3N)on2)c(OC(C)C)c1` [Compound I-118], in experiment [2] (setting [3]), the Ki is not above 5 nM.

Consider `CNCc1ccc(-c2cc(-c3nc(-c4cc(F)c(=O)n(C(C)C)c4)cnc3N)on2)cc1` [Compound I-121], for which the Ki in experiment [2] (setting [3]) was 5 to 50 nM.

In the case of `CCC(C#N)(CC)n1cc(-c2cnc(N)c(-c3cc(-c4ccc(CNC5CC5)cc4F)no3)n2)ccc1=O` [Compound I-135], the “CP3 shift” value in experiment [1] came to 0.01 µM.

In the case of `CCC(C#N)(CC)n1cc(-c2cnc(N)c(-c3cc(-c4ccc(CNC5CC5)cc4F)no3)n2)ccc1=O` [Compound I-136], the Ki in experiment [2] (setting [3]) was not above 5 nM.

For `CCC(CC)n1cc(-c2cnc(N)c(-c3cc(-c4cccc(C5(N)CC5)c4)no3)n2)ccc1=O` [Compound I-137], the Ki in experiment [2] (setting [3]) lay within 5 to 50 nM.

With `CCC(CC)n1cc(-c2cnc(N)c(-c3cc(-c4ccc(F)c(C(C)N)c4)no3)n2)ccc1=O` (stereo not shown) [Compound I-141], the Ki in experiment [2] (setting [3]) is not above 5 nM.

`CCC(CC)n1cc(-c2cnc(N)c(-c3cc(-c4cccc(C(C)N)c4F)no3)n2)ccc1=O` (stereo not shown) [Compound I-142]: in experiment [2] (setting [3]), the Ki is not above 5 nM.

Consider `CC(C)(C#N)n1cc(-c2cnc(N)c(-c3cc(-c4ccc(CNC5CC5)cc4)no3)n2)ccc1=O` [Compound I-144], for which the Ki in experiment [2] (setting [3]) was not above 5 nM.

Turning to `CCC(CC)n1cc(-c2cnc(N)c(-c3cc(-c4cccc(C(C)(C)N)c4)no3)n2)ccc1=O` [Compound I-146], the Ki in experiment [2] (setting [3]) was not above 5 nM.

Consider `CC(CO)NCc1ccc(-c2cc(-c3nc(-c4ccc(=O)n(C(C)(C)C#N)c4)cnc3N)on2)cc1` (stereo not shown) [Compound I-147], for which the Ki in experiment [2] (setting [3]) was not above 5 nM.

`CNCc1ccc(-c2nnc(-c3nc(-c4ccc(=O)[nH]c4)cnc3N)o2)cc1` [Compound I-148]: the Ki in experiment [2] (setting [3]) was not above 5 nM.

On to `CNCc1ccc(-c2nnc(-c3nc(-c4ccc(=O)n(C(C)C)c4C#N)cnc3N)o2)cc1` [Compound I-149], for which the Ki in experiment [2] (setting [3]) is 5 to 50 nM.

Consider `CNCc1ccc(-c2nnc(-c3nc(-c4ccc(=O)n(C(C)C)c4C)cnc3N)o2)c(C)c1` [Compound I-150], for which the Ki in experiment [2] (setting [3]) was in the range of 50 to 100 nM.

Consider `CNCc1ccc(-c2nnc(-c3nc(-c4ccc(=O)n(C(C)C)c4C#N)cnc3N)o2)c(C)c1` [Compound I-151], for which the Ki in experiment [2] (setting [3]) lay within 5 to 50 nM.
